According to US12479846B2, “EZH2 inhibitor and use thereof” (PHARMABLOCK SCIENCES (NANJING) , INC., priority 2019, dated 2025):

Legend:
Karpas422 cells = assay: Cell proliferation inhibition test (CCK8), Karpas422; format: cell-based; details: Homo sapiens, KARPAS-422, 288 h; B-cell non-Hodgkin's lymphoma cell line, 12 days incubation, CCK8 cell viability
Text: (§1) Cell Proliferation Inhibition Test
(§2) Karpass 422 and WSUDLCL-2 cells were purchased from the European Collection of Authenticated Cell Cultures (ECACC) and the German Collection of Microorganisms and Cell Cultures (Deutsche Sammlung von Mikroorganismen und Zellkulturen, DSMZ). RMBI 1640 medium, penicillin-streptomycin, heat-inactivated fetal bovine senum (FBS), and horse serum were purchased from ThermoFisher (Waltham MA, USA). Corning 96-well cell culture plate was purchased from ThermoFisher (Waltham MA, USA).
(§3) To evaluate the inhibitory effect of the synthesized compounds on the proliferation of B-cell non-Hodgkin's lymphoma Karpass 422 and WSUDLCL-2 cells, exponentially growing cells were inoculated in RMPI1640 medium containing 20% and 10% horse serum and 1% penicillin-streptomycin at concentrations of 2000 cells/ml and 3000 cells/ml, respectively, in 96-well plates, 100 μL per well, and incubated overnight in an incubator at 37° C. and 5% CO2. The compound was prepared in DMSO into a 10-point, 3-fold series diluent, starting at 6 mM. 1 μL of DMSO solution from a compound reserve plate was added to 99 μL of cell culture medium (the final maximum concentration of the compound in the assay was 30 μM and the final concentration of DMSO was 0.5%). 100 μL of compound solution from the medium was added to each well of the Karpass422 cell plate. After the addition of the compound solution, the assay plate was incubated at 37° C. and 5% CO2 for 12 days. During the incubation, the cell culture medium was replaced with the cell culture medium having the newly dissolved test compound every 4 days. After 100 μL of the old medium was removed from the cell plate, 100 μL of medium having dissolved test compound was added to the assay plate, which was prepared by adding 1 μL of compound DMSO series solution to 199 μL of cell medium with the same layout as the original preparation layout. Cell viability was measured by using cell count kit-8 (CCK8) purchased from Beyotime Biotechnology (Shanghai, China). 20 μL of CCK8 reagent was added to each well of the assay plate and incubated at 37° C. for 2 hours. The O.D. at 450 nm was read by using a FlexStation 3 microplate reader (Molecular Devices, Sunnyvale, CA 94089 USA).

WSUDLCL-2 cells = assay: Cell proliferation inhibition test (CCK8), WSUDLCL-2; format: cell-based; details: Homo sapiens, WSUDLCL2, 288 h; B-cell non-Hodgkin's lymphoma cell line, 12 days incubation, CCK8 cell viability
Text: as §1, §2, §3

Wild-type PRC2/EZH2 = target: T1, Wild-type PRC2/EZH2 (Homo sapiens, UniProt Q15910); assay: PRC2/EZH2 HTRF enzyme inhibition test; format: biochemical; details: human recombinant PRC2 complex, 30 μM SAM, 10 μM biotin-H3 (21-44) peptide
T1 construct: purchased Reaction Biology (Malvern, PA); host or cells: insect cell/baculovirus expression system
T1 sequence (Q15910 whole entry): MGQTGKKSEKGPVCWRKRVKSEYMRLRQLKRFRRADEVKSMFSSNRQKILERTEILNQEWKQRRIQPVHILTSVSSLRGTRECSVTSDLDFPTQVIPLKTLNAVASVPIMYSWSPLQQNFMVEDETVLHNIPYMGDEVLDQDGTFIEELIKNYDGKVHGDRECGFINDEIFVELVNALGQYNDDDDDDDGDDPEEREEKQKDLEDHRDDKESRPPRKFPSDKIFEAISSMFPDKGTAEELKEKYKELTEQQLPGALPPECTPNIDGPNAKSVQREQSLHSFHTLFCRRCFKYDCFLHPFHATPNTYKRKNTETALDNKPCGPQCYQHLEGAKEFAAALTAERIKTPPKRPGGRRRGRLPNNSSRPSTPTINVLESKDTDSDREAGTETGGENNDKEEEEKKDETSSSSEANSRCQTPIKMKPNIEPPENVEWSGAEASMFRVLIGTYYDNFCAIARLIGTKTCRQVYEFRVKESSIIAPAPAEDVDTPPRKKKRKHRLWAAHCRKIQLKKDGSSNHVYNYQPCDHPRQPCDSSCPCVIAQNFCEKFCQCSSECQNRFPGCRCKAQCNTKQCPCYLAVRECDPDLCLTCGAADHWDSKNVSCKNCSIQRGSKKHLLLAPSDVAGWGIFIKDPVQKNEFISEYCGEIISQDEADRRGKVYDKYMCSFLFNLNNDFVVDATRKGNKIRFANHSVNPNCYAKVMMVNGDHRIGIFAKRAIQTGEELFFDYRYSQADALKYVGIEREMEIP
T1 sequence (Q6ZN18 whole entry partner): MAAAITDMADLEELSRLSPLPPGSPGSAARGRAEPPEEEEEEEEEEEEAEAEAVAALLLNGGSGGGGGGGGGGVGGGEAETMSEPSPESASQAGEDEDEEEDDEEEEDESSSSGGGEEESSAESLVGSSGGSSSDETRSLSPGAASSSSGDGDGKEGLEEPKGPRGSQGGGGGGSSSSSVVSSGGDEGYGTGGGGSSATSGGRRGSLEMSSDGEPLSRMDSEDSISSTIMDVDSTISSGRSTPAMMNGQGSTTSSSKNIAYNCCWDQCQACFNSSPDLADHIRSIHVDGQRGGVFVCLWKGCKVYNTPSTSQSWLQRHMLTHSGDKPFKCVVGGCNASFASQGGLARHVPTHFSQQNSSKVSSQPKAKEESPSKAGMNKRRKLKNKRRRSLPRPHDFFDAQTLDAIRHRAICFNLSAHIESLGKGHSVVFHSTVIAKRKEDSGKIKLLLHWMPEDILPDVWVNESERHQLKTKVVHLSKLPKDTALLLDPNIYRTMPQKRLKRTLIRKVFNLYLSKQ
T1 sequence (O75530 whole entry partner): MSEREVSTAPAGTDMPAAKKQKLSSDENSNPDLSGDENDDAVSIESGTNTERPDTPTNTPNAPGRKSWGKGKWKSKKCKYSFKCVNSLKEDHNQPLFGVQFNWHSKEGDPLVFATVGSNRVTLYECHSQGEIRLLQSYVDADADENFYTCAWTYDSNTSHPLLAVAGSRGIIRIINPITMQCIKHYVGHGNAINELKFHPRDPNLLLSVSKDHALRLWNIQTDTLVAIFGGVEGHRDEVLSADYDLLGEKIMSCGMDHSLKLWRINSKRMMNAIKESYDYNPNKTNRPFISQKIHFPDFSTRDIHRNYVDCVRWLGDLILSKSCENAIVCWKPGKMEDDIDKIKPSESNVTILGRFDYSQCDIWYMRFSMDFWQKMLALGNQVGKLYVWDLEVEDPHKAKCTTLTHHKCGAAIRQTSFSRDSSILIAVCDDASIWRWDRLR
T1 sequence (Q09028 whole entry partner): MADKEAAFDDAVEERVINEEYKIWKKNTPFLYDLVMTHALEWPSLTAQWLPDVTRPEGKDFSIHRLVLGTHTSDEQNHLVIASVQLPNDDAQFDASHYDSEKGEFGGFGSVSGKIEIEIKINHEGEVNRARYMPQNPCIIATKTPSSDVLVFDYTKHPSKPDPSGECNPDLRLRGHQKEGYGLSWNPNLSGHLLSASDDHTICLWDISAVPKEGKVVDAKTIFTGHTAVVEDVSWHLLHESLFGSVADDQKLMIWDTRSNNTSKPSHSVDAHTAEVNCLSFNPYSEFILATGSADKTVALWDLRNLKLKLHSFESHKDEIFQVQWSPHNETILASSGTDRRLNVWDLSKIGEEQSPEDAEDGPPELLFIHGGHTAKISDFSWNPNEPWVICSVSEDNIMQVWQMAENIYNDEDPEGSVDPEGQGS
T1 sequence (Q15022 whole entry partner): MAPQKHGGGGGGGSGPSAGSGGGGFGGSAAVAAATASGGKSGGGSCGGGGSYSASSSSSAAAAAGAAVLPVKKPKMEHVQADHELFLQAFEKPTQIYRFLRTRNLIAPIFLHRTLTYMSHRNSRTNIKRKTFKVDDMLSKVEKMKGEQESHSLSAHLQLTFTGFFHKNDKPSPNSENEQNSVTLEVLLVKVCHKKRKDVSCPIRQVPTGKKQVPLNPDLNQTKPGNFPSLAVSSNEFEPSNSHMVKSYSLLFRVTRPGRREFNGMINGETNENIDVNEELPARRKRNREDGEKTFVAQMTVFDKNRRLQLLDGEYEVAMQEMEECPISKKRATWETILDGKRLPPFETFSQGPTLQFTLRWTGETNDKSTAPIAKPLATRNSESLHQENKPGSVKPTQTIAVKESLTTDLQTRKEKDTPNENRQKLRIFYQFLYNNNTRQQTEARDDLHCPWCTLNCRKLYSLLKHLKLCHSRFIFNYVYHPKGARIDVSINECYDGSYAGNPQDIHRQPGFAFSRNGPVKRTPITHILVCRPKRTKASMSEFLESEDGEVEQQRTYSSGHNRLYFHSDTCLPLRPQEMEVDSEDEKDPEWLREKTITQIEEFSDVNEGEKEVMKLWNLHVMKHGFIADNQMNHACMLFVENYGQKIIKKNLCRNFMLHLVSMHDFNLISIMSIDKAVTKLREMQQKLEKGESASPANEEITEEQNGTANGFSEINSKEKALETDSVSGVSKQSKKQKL
Text: The human recombinant PRC2 complex was composed of human recombinant EZH2, AEBP2, EED, RbAp48, and SUZ12, co-expressed in an insect cell/baculovirus expression system, and purchased from Reaction Biology (Malvern, PA). […] The HTRF detection kit including monoclonal antibody histone H3K27Mel-Eu (K) fluorescent donor and streptavidin labeled XL665 fluorescent receptor was purchased from Cisbio (Shanghai, China). S-adenosylmethionine (SAM), Tween 20, dimethyl sulfoxide (DMSO), and Tris buffer at the highest purity level were purchased from Sigma.
The experiment was carried out in a buffer consisting of 50 mM Tris, pH 9.0, 0.1% BSA, and 0.01% Tween 20, and 1 mM DTT was added before the experiment started. 2.5 μL of a solution of a compound in 4% DMSO and 5 μL of PRC2/SAM mixed solution pre-incubated for 30 minutes were added to the buffer, and then the buffer was added to a white low-volume 384-well microtiter plate. The mixture solution was gently shaken and incubated at room temperature for 15 minutes. 2.5 μL of biotin-H3 (21-44) peptide substrate solution was added to the buffer to initiate the methyl transfer reaction. The final concentrations of PRC2, SAM, biotin-H3 peptide substrate, and DMSO were 2 ng/L, 30 μM, 10 μM, and 1%, respectively. The reaction was gently shaken at room temperature away from light for 120 minutes, and then 10 μL of monoclonal antibody histone H3K27Mel-Eu (K) fluorescent donor and streptavidin-labeled XL665 fluorescent receptor in the detection buffer from the manufacturer were added to the reaction mixture for incubation for 60 minutes. The final concentrations of these two reagents were 50 ng/ml and 62.5 nM, respectively. The plate was read on an Envision multi-template reader from PerkinElmer (Waltham MA USA) with an excitation wavelength of 320 nm and emission wavelengths of 665 and 615 nm. The IC50 value of the inhibitor was obtained by fitting an S-shaped dose-response curve (variable slope, four parameters) of fluorescence intensities at 665 nm and 615 nm over inhibitor concentrations by using Prism 7 (La Jolla, CA).

| Compound | IC50 (Karpas422 cells) [nM] | IC50 (WSUDLCL-2 cells) [nM] | IC50 (Wild-type PRC2/EZH2) [nM] |
| --- | --- | --- | --- |
| COc1cc(C)[nH]c(=O)c1CN1CCn2ccc3cc(-c4c(C)noc4C)c(C)c(c32)C1=O [Compound 15, 9-(3,5-dimethylisoxazol-4-yl)-2-((4-methoxy-6-methyl-2-oxo-1,2-dihydropyridin-3-yl)methyl)-10-methyl-3,4-dihydro-[1,4]diazepino[6,7,1-HI]indol-1(2H)-one] | 50.1 | 1.2 | 17.8 |
| COc1cc(C)[nH]c(=O)c1CN1CCn2ccc3cc(C(OC)C4COC4)c(Cl)c(c32)C1=O (stereo not shown) [Compound 9, 10-chloro-9-(methoxy(oxetan-3-yl)methyl)-2-((4-methoxy-6-methyl-2-oxo-1,2-dihydropyridin-3-yl)methyl)-3,4-dihydro-[1,4]diazepino[6,7,1-HI]indol-1(2H)-one] | – | – | 21.5 |
| CCN(c1cc2ccn3c2c(c1Cl)C(=O)N(Cc1c(OC)cc(C)[nH]c1=O)CC3)C1COC1 [Compound 2, 10-chloro-9-(ethyl(oxetan-3-yl)amino)-2-((4-methoxy-6-methyl-2-oxo-1,2-dihydropyridin-3-yl)methyl)-3,4-dihydro-[1,4]diazepino[6,7,1-HI]indol-1(2H)-one] | – | – | 3.8 |
| COc1cc(C)[nH]c(=O)c1CN1CCn2ccc3cc(-c4c(C)nn(CC#N)c4C)c(Cl)c(c32)C1=O [Compound 8, 2-(4-(10-chloro-2-((4-methoxy-6-methyl-2-oxo-1,2-dihydropyridin-3-yl)methyl)-1-oxo-1,2,3,4-tetrahydro-[1,4]diazepino[6,7,1-HI]indol-9-yl)-3,5-dimethyl-1H-pyrazol-1-yl)acetonitrile] | – | – | 1090 |
| COc1cc(C)[nH]c(=O)c1CN1CCn2cc(Cl)c3cc(-c4c(C)cnn4C)c(Cl)c(c32)C1=O [Compound 6, 7,10-dichloro-9-(1,4-dimethyl-1H-pyrazol-5-yl)-2-((4-methoxy-6-methyl-2-oxo-1,2-dihydropyridin-3-yl)methyl)-3,4-dihydro-[1,4]diazepino[6,7,1-HI]indol-1(2H)-one] | – | – | 1120 |
| COc1cc(C)[nH]c(=O)c1CN1CCn2cnc3cc(-c4c(C)noc4C)c(Cl)c(c32)C1=O [Compound 13, 5-chloro-4-(3,5-dimethylisoxazol-4-yl)-7-((4-methoxy-6-methyl-2-oxo-1,2-dihydropyridin-3-yl)methyl)-8,9-dihydro-2,7,9a-triazabenzo[cd]azulen-6(7H)-one] | 359 | 56.1 | – |
| COc1cc(C)[nH]c(=O)c1CN1CCn2ccc3cc(-c4c(C)nn(C)c4C)c(Cl)c(c32)C1=O [Compound 4, 10-chloro-2-((4-methoxy-6-methyl-2-oxo-1,2-dihydropyridin-3-yl)methyl)-9-(1,3,5-trimethyl-1H-pyrazol-4-yl)-3,4-dihydro-[1,4]diazepino[6,7,1-HI]indol-1(2H)-one] | – | – | 2530 |
| COc1cc(C)[nH]c(=O)c1CN1C(=O)c2c(Cl)c(-c3c(C)noc3C)cc3ccn(c23)CC1C (stereo not shown) [Compound 17, 10-chloro-9-(3,5-dimethylisoxazol-4-yl)-2-((4-methoxy-6-methyl-2-oxo-1,2-dihydropyridin-3-yl)methyl)-3-methyl-3,4-dihydro-[1,4]diazepino[6,7,1-HI]indol-1(2H)-one] | 35 | 1.2 | 14 |
| COc1cc(C)[nH]c(=O)c1CN1CCn2ccc3cc(-c4c(C)noc4C)c(Cl)c(c32)C1=O [Compound 1, 10-chloro-9-(3,5-dimethylisoxazol-4-yl)-2-((4-methoxy-6-methyl-2-oxo-1,2-dihydropyridin-3-yl)methyl)-3,4-dihydro-[1,4]diazepino[6,7,1-HI]indol-1(2H)-one] | 52 | 3.8 | – |
| COc1cc(C)[nH]c(=O)c1CN1CCn2ncc3cc(-c4c(C)noc4C)c(Cl)c(c32)C1=O [Compound 12, 5-chloro-4-(3,5-dimethylisoxazol-4-yl)-7-((4-methoxy-6-methyl-2-oxo-1,2-dihydropyridin-3-yl)methyl)-8,9-dihydro-[1,4]diazepino[6,7,1-HI]indazol-6(7H)-one] | 87.6 | 11 | – |
| COc1cc(C)[nH]c(=O)c1CN1CCn2ccc3cc(-c4c(C)nn(CCO)c4C)c(Cl)c(c32)C1=O [Compound 7, 10-chloro-9-(1-(2-hydroxyethyl)-3,5-dimethyl-1H-pyrazol-4-yl)-2-((4-methoxy-6-methyl-2-oxo-1,2-dihydropyridin-3-yl)methyl)-3,4-dihydro-[1,4]diazepino[6,7,1-HI]indol-1(2H)-one] | – | – | 3650 |
| COc1cc(C)[nH]c(=O)c1CN1CC(C)n2ccc3cc(-c4c(C)noc4C)c(Cl)c(c32)C1=O (stereo not shown) [Compound 16, 10-chloro-9-(3,5-dimethylisoxazol-4-yl)-2-((4-methoxy-6-methyl-2-oxo-1,2-dihydropyridin-3-yl)methyl)-4-methyl-3,4-dihydro-[1,4]diazepino[6,7,1-HI]indol-1(2H)-one] | 158 | 4.6 | – |
| COc1cc(C)[nH]c(=O)c1CN1CCn2ccc3cc([C@@H](OC)C4COC4)c(Cl)c(c32)C1=O [Compound 11, (S)-10-chloro-9-(methoxy(oxetan-3-yl)methyl)-2-((4-methoxy-6-methyl-2-oxo-1,2-dihydropyridin-3-yl)methyl)-3,4-dihydro-[1,4]diazepino[6,7,1-HI]indol-1(2H)-one] | 934 | 104 | 557 |
| COc1cc(C)[nH]c(=O)c1CN1CCn2ccc3cc(C(OC)C4COC4)c(C)c(c32)C1=O (stereo not shown) [Compound 14, 9-(methoxy(oxetan-3-yl)methyl)-2-((4-methoxy-6-methyl-2-oxo-1,2-dihydropyridin-3-yl)methyl)-10-methyl-3,4-dihydro-[1,4]diazepino[6,7,1-HI]indol-1(2H)-one] | 28.7 | 4.8 | 11.8 |
| COc1cc(C)[nH]c(=O)c1CN1CCn2ccc3cc(-c4c(C)cnn4C)c(Cl)c(c32)C1=O [Compound 5, 10-chloro-9-(1,4-dimethyl-1H-pyrazol-5-yl)-2-((4-methoxy-6-methyl-2-oxo-1,2-dihydropyridin-3-yl)methyl)-3,4-dihydro-[1,4]diazepino[6,7,1-HI]indol-1(2H)-one] | – | – | 253 |
| COc1cc(C)[nH]c(=O)c1CN1CCN2CCc3cc(-c4c(C)noc4C)c(Cl)c(c32)C1=O [Compound 3, 10-chloro-9-(3,5-dimethylisoxazol-4-yl)-2-((4-methoxy-6-methyl-2-oxo-1,2-dihydropyridin-3-yl)methyl)-3,4,6,7-tetrahydro-[1,4]diazepino[6,7,1-HI]indol-1(2H)-one] | – | – | 19.9 |
| COc1cc(C)[nH]c(=O)c1CN1CCn2ccc3cc([C@H](OC)C4COC4)c(Cl)c(c32)C1=O [Compound 10, (R)-10-chloro-9-(methoxy(oxetan-3-yl)methyl)-2-((4-methoxy-6-methyl-2-oxo-1,2-dihydropyridin-3-yl)methyl)-3,4-dihydro-[1,4]diazepino[6,7,1-HI]indol-1(2H)-one] | 11.4 | 2.4 | 7.2 |
